Columns and labels:
Cdc42 = Cdc42 (Homo sapiens (Human), UniProt P60953); experiment: Cdc42 GTP Binding Domain Inhibition Assay; details: read-out: Cdc42: % inh.
Method: (§1) The following method was developed as specific assay for cdc42 and Rheb proteins.
(§2) Buffer-I: • 25 mM Tris-HCl, pH 7.4 • 27 mM KCl • 137 mM NaCl • 1 mM MgCl2 • 1 mM DTT
(§3) Buffer-IL: • 50 mM Tris-HCl, pH 7.0 • 1 mM MgCl2 • 1 mM DTT
(§4) The small GTPases proteins cdc42 and Rheb were expressed as His-tagged proteins. For the assay, the cdc42 and Rheb purified small GTPases proteins were diluted in Buffer-I or Buffer-II to a final concentration of 10-30 μg/mL. 200 μL of each diluted protein was added to a nickel-coated 96-well plate and incubated overnight at […]. Then the protein solution was discarded and 200 μL of Buffer-I or Buffer-II was added to each well in the presence of 1% DMSO. Compounds to be tested were added to the protein-coated wells at final concentration of 20 μM, and incubated for 3 hours at room temperature with and without 10-30 μg/mL of Sos added to the final hour of the incubation. When performing IC50 measurements a serial dilution of all tested concentrations was added. Then Cy3-GTP or Cy5-GTP was added to each well to a final concentration of 100 nM. The labeled GTP was incubated for 45 minutes at room temperature. Following GTP incubation, wells were washed 3× in Buffer-I or Buffer-II and 200 μL of Buffer-I or Buffer-II was added to each well. Following washes, the amount of bound labeled-GTP was measured using a SpectraMax M3 (Molecular Devices).

Rheb = Rheb (Homo sapiens (Human), UniProt Q15382); experiment: Rheb GTP Binding Domain Inhibition Assay; details: read-out: Rheb: % inh.
Method: as §1, §2, §3, §4

JNK = JNK Activation Assay in C2C12 (western blot); type: cell-based, mouse; design: key: Y = yes; N = No; details: at 10 μM
Method: (§5) Cell lines: Human tumor-derived pancreatic cancer cell line Panc-1 and mouse muscle myoblast C2C12 were purchased from American Type Culture Collection and grown in complete DMEM-High Glucose, supplemented with penicillin (100 U/mL), streptomycin (100 μg/mL), and 10% heat-inactivated FBS at 37° C. in a humidified incubator with 5% CO2.
Method: Cells were plated at 350000 cells/well density in a 12-well plate, allowed 3 hours to adhere to the plate, then starved in the appropriate medium in the presence of 0.5% FBS overnight. The small molecules to be tested were added to the cells in the final concentration of 10 μM in the presence of 0.3% DMSO for 3 hours incubation at 37° C. For IC50 value determination, serial dilutions of compounds were added to cells under the same conditions. […] Protein concentration was assessed by BCA protein assay (Thermo Scientific). Phosphorylation level of JNK was determined by western blot.
Western blot protocol: Equal amounts of protein (15-50 μg) were separated by SDS-PAGE and transferred to nitrocellulose membranes (Invitrogen by Thermo Fisher Scientific). […] Membranes were blocked with 10% milk and phosphorylation levels of Smad2, Smad3, INK and p38 were assessed by incubating overnight at 4° C. with the following antibody: Phospho-SAPK/JNK (Thr183/Tyr185), from Cell Signaling Technology. […]

Smad2/3 phosphorylation = experiment: Phospho-Smad2/3 Inhibition Assay in C2C12 (western blot); type: cell-based; details: Mus musculus; for IC50: C2C12, TGF-b1 stimulated
Method: as §5
Method: Cells were plated at 350000 cells/well density in a 12-well plate, allowed 3 hours to adhere to the plate, then starved in the appropriate medium in the presence of 0.5% FBS overnight. The small molecules to be tested were added to the cells in the final concentration of 10 μM in the presence of 0.3% DMSO for 3 hours incubation at 37° C. For IC50 value determination, serial dilutions of compounds were added to cells under the same conditions. Next, Panc-1 cells were stimulated with 10 ng/ml TGF-b1 for 1 hour, and C2C12 cells were stimulated with 10 ng/ml TGF-b1 for 20 minutes (recombinant human TGF-b1, R&D Systems). After stimulation cells were lysed with lysis buffer containing 1% Triton X-100, EDTA, and Halt™ Protease & Phosphatase Inhibitor Cocktail (Thermo Scientific). Protein concentration was assessed by BCA protein assay (Thermo Scientific). Phosphorylation level of Smad2/Smad3 was determined by western blot.
Western blot protocol: Equal amounts of protein (15-50 μg) were separated by SDS-PAGE and transferred to nitrocellulose membranes (Invitrogen by Thermo Fisher Scientific). The membrane was stained with Ponceau S Stain (Boston BioProducts) to verify uniform protein loading. Membranes were blocked with 10% milk and phosphorylation levels of Smad2/Smad3 were assessed by incubating overnight at 4° C. with the following antibodies: Phospho-Smad2 (Ser465/467) and Phosph-Smad3 (Ser423/425), both from Cell Signaling Technology. Then the membranes were incubated with HRP-conjugated secondary antibody (Jackson Immunoresearch, West Grove, PA). Bands were incubated in Amersham ECL Prime Western Blotting Detection Reagent (GE Healthcare) and visualized using the ChemiDoc MP imaging system (Bio-Rad).

Cdc42, sequence (P60953 whole entry, species assumed, the tested form may be a part): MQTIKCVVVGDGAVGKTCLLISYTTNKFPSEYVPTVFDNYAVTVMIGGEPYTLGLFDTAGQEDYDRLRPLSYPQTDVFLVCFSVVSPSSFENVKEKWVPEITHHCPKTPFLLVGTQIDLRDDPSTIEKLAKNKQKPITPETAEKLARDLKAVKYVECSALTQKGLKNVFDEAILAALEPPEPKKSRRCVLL
Rheb, sequence (Q15382 whole entry, species assumed, the tested form may be a part): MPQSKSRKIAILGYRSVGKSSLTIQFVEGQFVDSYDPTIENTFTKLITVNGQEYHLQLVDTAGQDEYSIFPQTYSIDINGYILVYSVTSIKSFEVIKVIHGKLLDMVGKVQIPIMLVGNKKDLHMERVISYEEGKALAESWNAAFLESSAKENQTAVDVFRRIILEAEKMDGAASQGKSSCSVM

| Compound | inhibition at 20 µM (Cdc42) | inhibition at 20 µM (Rheb) | Activation of JNK in C2C12 (JNK) | IC50 (Smad2/3 phosphorylation) | inhibition at 10 µM (Smad2/3 phosphorylation; 10 μM, 3 hours, C2C12 stimulated with 10 ng/ml TGF-b1 for 20 minutes, read-out: % inh of Smad2/3 phosphorylation in C2C12) |
| --- | --- | --- | --- | --- | --- |
| COc1cc(-c2sc3nc(-c4nccn4C)nc(N[C@@H]4CC[C@@H](OC)C4)c3c2-c2ccccc2)ccn1 (racemic) [Compound 47, N-((1R,3R)-3-Methoxycyclopentyl)-6-(2-methoxypyridin-4-yl)-2-(1-methyl-1H-imidazol-2-yl)-5-phenylthieno[2,3-d]pyrimidin-4-amine] | 46 to 75% | 76 to 100% |  |  |  |
| COCCNc1nc(-c2cn(C)cn2)nc2sc(-c3cccc(OC)c3Cl)c(-c3ccc(OC)cc3)c12 [Compound 8, 6-(2-Chloro-3-methoxyphenyl)-N-(2-methoxyethyl)-5-(4-methoxyphenyl)-2-(1-methyl-1H-imidazol-4-yl)thieno[2,3-d]pyrimidin-4-amine] |  |  | Y | 1 to 4.99 µM |  |
| COc1cccc(Nc2nc(-c3nccn3C)nc3sc(-c4ccn(C(C)C)n4)c(C)c23)n1 [Compound 18, 6-(1-Isopropyl-1H-pyrazol-3-yl)-N-(6-methoxypyridin-2-yl)-5-methyl-2-(1-methyl-1H-imidazol-2-yl)thieno[2,3-d]pyrimidin-4-amine] |  |  |  | 5 to 10 µM |  |
| COc1cccc(-c2sc3nc(-c4nccn4C)nc(N[C@H]4C[C@H](OC)C4)c3c2-c2ccccc2)c1F [Compound 40, 6-(2-Fluoro-3-methoxyphenyl)-N-((1r,3r)-3-methoxycyclobutyl)-2-(1-methyl-1H-imidazol-2-yl)-5-phenylthieno[2,3-d]pyrimidin-4-amine] | 26 to 45% | 76 to 100% |  |  |  |
| COc1cccc(Nc2nc(-c3nccn3C)nc3sc(-c4ccn(C(C)C)n4)c(C)c23)c1 [Compound 17, 6-(1-Isopropyl-1H-pyrazol-3-yl)-N-(3-methoxyphenyl)-5-methyl-2-(1-methyl-1H-imidazol-2-yl)thieno[2,3-d]pyrimidin-4-amine] |  |  |  | 5 to 10 µM |  |
| COc1nccc(-c2sc3nc(-c4nccn4C)nc(N[C@H]4C[C@H](OC)C4)c3c2-c2ccccc2)c1F [Compound 45, 6-(3-Fluoro-2-methoxypyridin-4-yl)-N-((1r,3r)-3-methoxycyclobutyl)-2-(1-methyl-1H-imidazol-2-yl)-5-phenylthieno[2,3-d]pyrimidin-4-amine] | 46 to 75% | 76 to 100% |  |  |  |
| COc1cc(Nc2nc(-c3nccn3C)nc3sc(-c4ccn(C(C)C)n4)c(C)c23)ncn1 [Compound 19, 6-(1-Isopropyl-1H-pyrazol-3-yl)-N-(6-methoxypyrimidin-4-yl)-5-methyl-2-(1-methyl-1H-imidazol-2-yl)thieno[2,3-d]pyrimidin-4-amine] |  |  |  | > 10 µM |  |
| COc1cc(-c2sc3nc(-c4nccn4C)nc(N[C@@H]4CC[C@H](OC)C4)c3c2-c2ccccc2)ccn1 (racemic) [Compound 44, rac-N-((1R,3S)-3-Methoxycyclopentyl)-6-(2-methoxypyridin-4-yl)-2-(1-methyl-1H-imidazol-2-yl)-5-phenylthieno[2,3-d]pyrimidin-4-amine] | 1 to 25% | 26 to 45% |  |  |  |
| COCCNc1nc(-c2nccn2C)nc2sc(-c3cccc(OC)c3Cl)c(-c3ccccc3)c12 [Compound 9, 6-(2-Chloro-3-methoxyphenyl)-N-(2-methoxyethyl)-2-(1-methyl-1H-imidazol-2-yl)-5-phenylthieno[2,3-d]pyrimidin-4-amine] |  |  | Y | 1 to 4.99 µM | 76 to 100% |
| COc1cc(-c2sc3nc(-c4nccn4C)nc(N[C@H]4C[C@H](OC)C4)c3c2-c2ccccc2)ccn1 [Compound 46, N-((1r,3r)-3-Methoxycyclobutyl)-6-(2-methoxypyridin-4-yl)-2-(1-methyl-1H-imidazol-2-yl)-5-phenylthieno[2,3-d]pyrimidin-4-amine] | 46 to 75% | 76 to 100% |  |  |  |

Source: patent US20240124483A1, “Methods for the Treatment of Fibrotic Disease” (SHY Therapeutics, LLC, priority 2021, published 2024)
